From US12162878B2 (HINOVA PHARMACEUTICALS INC., priority 2018, dated 2024)

Columns and labels:
MDA-MB-231 cells = test: Inhibition of proliferation of MDA-MB-231 cells (CCK-8); assay type: cell-based, human; settings: for IC50: Homo sapiens, 144 h, 6 days, CCK-8
Method: (§1) • MDA-MB-231 cell line (Cell Bank of Chinese Academy of Sciences, TCHu104) • FBS (Gibco, Cat. No. 10099-141) • 0.01M PBS (Biosharp, Cat. No. 162262) • RIPM1640 (Hyclone, Cat. No. 308090.01) • Penicillin-Streptomycin (Hyclone, Cat. No. SV30010) • Cell counting kit-8 (Signalway Antibody, Cat. No. CP002) • DMSO (Sigma, Cat. No. D5879) • Centrifuge Tube, 15 ml (Excell Bio, Cat. No. CS015-0001) • Cell Culture Dish, (Excell Bio, Cat. No. CS016-0128) • 96-well cell culture cluster (Corning, Cat. No. 3599) 3. Experimental Method
1) MDA-MB-231 cells were subcultured in cell culture media, and the cells in good growth condition were seeded in a 96-well plate, 80 μL for each well, thus the number of cells per well was 1500, then the plate was cultured overnight in a 37° C., 5% CO2 cell incubator.
(§2) 2) The drug was prepared with dimethyl sulfoxide (DMSO) as a 10 mM stock solution. Prior to use, the solution was diluted 3 times with DMSO, and then diluted with a 3-fold gradient to obtain 9 concentration gradients. Then, each concentration of the compound was further diluted 200 times with the culture media (to ensure that DMSO concentration in the culture system was 0.1%), 2 repeat wells for each concentration. The diluted solution of each compound (20 μL) was added to the cell culture well (with a final concentration of 10 μM, 3.3 μM, 1.1 μM . . . ), and shaken gently for mixing. In addition, three negative control wells containing only cells and three blank control wells containing only culture medium (20 μL DMSO diluted 200 times with culture medium being added to six wells) were included.
(§3) (1) After culturing for 6 days, 10 μL CCK-8 was added to each well and cultured for additional 2.5 h in a 37° C., 5% CO2 cell incubator.
(§4) (2) The absorbance (OD value) at 450 nm was measured with a multifunctional microplate reader.
(§5) (3) The data was analyzed by the Dose-response-inhibition equation in the software GraphPad Prism6, and the IC50 value was obtained.

BRD4(1,2) = BRD4(1,2) (Homo sapiens (Human), UniProt O60885); test: HTRF binding of compounds on BRD4 (D1+D2); settings: read-out: IC50 against BRD4(1,2)
From the text: (§6) Homogeneous time-resolved fluorescence technology (HTRF) was used to determine the binding effect of compounds on BRD4 (D1+D2) and BRDT (D1) proteins, as well as AlphaScreen method was used to detect the binding effect of compounds on BRD2 (D1+D2) and BRD3 (D1+D2) proteins.
(§7) The compounds were screened in vitro, and each compound was serially diluted to 10 concentrations. Four proteins BRD4 (D1+D2), BRDT (D1), BRD2 (D1+D2) and BRD3 (D1+D2) were chosen to determine the IC50 values of compounds (see Table 1).
(§8) 4. Compound treatment: The test compound was dissolved in dimethyl sulfoxide (DMSO), and the storage concentration was 10 mM.
(§9) 5. Steps for Homogeneous Time-Resolved Fluorescence Detection:
(§10) 1) According to the arrangement of the detection plate, all compounds were diluted in Echo plate.
(§11) The final dilution concentration of DMSO is 0.1%.
(§12) 2) The compound or DMSO was transferred to a 384-well detection plate with the Echo automatic sampler.
(§13) 3) Two-fold concentration of the mixture of protein and peptide was added to the detection plate.
(§14) 4) Two-fold concentration of mixed detection solution was added to the test plate, and shaken for 30 s.
(§15) 5) Incubating for 2 h at room temperature.
(§16) 6) Fluorescence signal was read on Envision multi-function microplate reader (excitation light wavelength being 340 nm, and emission light wavelength being 615 nm and 665 nm).
(§17) The experimental data were recorded in an Excel file, and equation (1) was used to obtain the inhibition rate. Inh%=(Max−Signal)/(Max−Min)*100 Equation (1):
(§18) The obtained data was recorded in GraphPad software, and equation (2) was used to provide the IC50 values. Y=Bottom+(Top−Bottom)/(1+10^((Log IC50−X)*Hill Slope)) Equation (2): […]
(§19) Y axis was the inhibition rate, and X axis was the compound concentration.

BRDT(D1) = BRDT(D1) (Homo sapiens (Human), UniProt Q58F21); test: HTRF binding of compounds on BRDT (D1); settings: read-out: IC50 against BRDT(D1)
From the text: as §6, §7, §8, §9, §10, §11, §12, §13, §14, §15, §16, §17, §18, §19

MDA-MB-453 cells = test: Inhibition of proliferation of MDA-MB-453 cells (CCK-8); assay type: cell-based, human; settings: for IC50: Homo sapiens, 144 h, 6 days, CCK-8
Method: as §1, with “MDA-MB-453” for “MDA-MB-231”, “TCHu35)” for “TCHu104)”
1) MDA-MB-453 cells were subcultured in cell culture media, and the cells in good growth condition were seeded in a 96-well plate, 80 μL for each well, thus the number of cells per well was 1500, then the plate was cultured overnight in a 37° C., 5% CO2 cell incubator.
as §2, §3, §4, §5

IC50 (MDA-MB-231 cells) [nM] | IC50 (BRD4(1,2)) [nM] | IC50 (BRDT(D1)) [nM] | IC50 (MDA-MB-453 cells) [nM] | SMILES | inhibitory action on MDA-MB-453 cells (in words) (MDA-MB-453 cells) | inhibitory action on MDA-MB-231 cells (in words) (MDA-MB-231 cells)
7540 | 14 | 30 | 89 | [2H]C([2H])([2H])n1cc(-c2cc(NS(=O)(=O)CC)ccc2N2CCC3(CC2)CC3)c2cc[nH]c2c1=O [Compound 41] | – | –
749 | – | – | 48 | [2H]C([2H])([2H])n1cc(-c2cc(S(=O)(=O)CC)ccc2N2CCC3(CC3)C2)c2cc[nH]c2c1=O [Compound 55, 4-(5(ethylsulfonyl)-2-(5-aza-spiro[2.4]heptan-5-yl)phenyl)-6-trideuteromethyl-1H-pyrrolo[2,3-c]pyridin-7(6H)-one] | effective inhibitory action | –
26 | 6.9 | 19 | 440 | [2H]C([2H])([2H])n1cc(-c2cc(S(C)(=O)=O)ccc2N2CCC3(CC2)CC3(F)F)c2cc[nH]c2c1=O [Compound 184, 4-(2-(1,1-difluoro-6-aza-spiro[2.5]octan-6-yl)-5-(methylsulfonyl)phenyl)-6-trideuteromethyl-1H-pyrrolo[2,3-c]pyridin-7(6H)-one] | – | effective inhibitory action
– | 12 | 40 | – | [2H]C([2H])([2H])n1cc(-c2cc(S(C)(=O)=O)c(F)cc2N2CCC3(CC2)CC3(F)F)c2cc[nH]c2c1=O [Compound 219, 4-(2-(1,1-difluoro-6-aza-spiro[2.5]octan-6-yl)-4-fluoro-5-(methylsulfonyl)phenyl)-6-trideuteromethyl-1H-pyrrolo[2,3-c]pyridin-7(6H)-one] | – | –
